Columns and labels:
[1] = system: Motorik des Magen-Darmtrakts und der ableitenden Harnwege; test: Stimulation of the motility of the gastrointestinal tract and the efferent urinary tract; assay type: in vivo, Hund; conditions: dose needed relative to the peptides of the invention
[2] = system: Motorik des Magen-Darmtrakts und der ableitenden Harnwege; test: as above; assay type: in vivo, Hund; conditions: parent compound compared with analogues varied in positions A-D
Protocol: Die erfindungsgemässen Peptide stimulieren die Motorik des Magen-Darmtrakts und der ableitenden Harnwege beim Hund und beim Menschen. Sie steigern den Ruhetonus und die segmentale Kontraktionsaktivität des Darmes und fördern dadurch sekundär auch die Wasserresorption aus dem Darmlumen (lleum).
Die erfindungsgemässen Peptide wirken intravenös bereits in einer Dosierung von 10 ng/kg und können unbedenklich auch in höherer Dosierung angewandt werden. […] Das parasympathomimetisch wirkende Carbaminoylcholin benötigt für die gleiche Wirkung etwa eine 10 fache Dosierung. So zählen die erfindungsgemässen Peptide zu den stärksten Effektoren der Motorik des Magen-Darmtrakts und der ableitenden Harnwege. Ihre morphinähnliche Wirkung ist zwar bekannt, doch überschreiten bei der geringen erforderlichen Dosierung weder nach intravenöser, subcutaner noch intranasaler Anwendung die wirksamen Dosen die Blut-Hirn-Schranke. Sie üben deshalb in der für den erfindungsgemässen Zweck erforderlichen Menge keine Wirkungen im Zentralnervensystem aus.

Compound | höhere Dosierung für ähnliche / gleiche Wirkung [1] [fach] | Wirkung (motility stimulation, in words) [2]
C[N+](C)(C)CCOC(N)=O [Carbaminoylcholin] | ~10 | –
Enkephalin | – | sehr schwach wirksamen

From patent publication EP0028716B1, “Motility increasing peptides and their use” (HOECHST AKTIENGESELLSCHAFT, priority 1979, dated 1986)
